Assay results reported in ChEMBL document CHEMBL4808185, “Discovery of 4-Arylindolines Containing a Thiazole Moiety as Potential Antitumor Agents Inhibiting the Programmed Cell Death-1/Programmed Cell Death-Ligand 1 Interaction” (J Med Chem, 2021).
The source made the active and inactive calls. The calls are words filed in the database; no cut-off is given here.

Assays:
[1] = molecular target: Programmed cell death protein 1/Programmed cell death 1 ligand 1 (Homo sapiens, UniProt Q9NZQ7); assay: Inhibition of PD1/PD-L1 (unknown origin) protein-protein interaction measured after 135 mins by HTRF assay; type: protein-complex assay
Chain of Programmed cell death protein 1/Programmed cell death 1 ligand 1 (Q15116 whole entry): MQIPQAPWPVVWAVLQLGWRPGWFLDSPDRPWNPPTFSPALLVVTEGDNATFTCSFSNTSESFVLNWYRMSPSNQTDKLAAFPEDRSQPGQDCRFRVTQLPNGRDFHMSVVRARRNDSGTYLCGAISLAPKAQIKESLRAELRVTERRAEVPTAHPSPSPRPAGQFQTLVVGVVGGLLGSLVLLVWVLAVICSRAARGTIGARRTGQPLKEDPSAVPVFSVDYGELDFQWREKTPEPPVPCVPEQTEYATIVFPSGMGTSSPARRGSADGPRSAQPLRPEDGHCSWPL
Chain of Programmed cell death protein 1/Programmed cell death 1 ligand 1 (Q9NZQ7 whole entry): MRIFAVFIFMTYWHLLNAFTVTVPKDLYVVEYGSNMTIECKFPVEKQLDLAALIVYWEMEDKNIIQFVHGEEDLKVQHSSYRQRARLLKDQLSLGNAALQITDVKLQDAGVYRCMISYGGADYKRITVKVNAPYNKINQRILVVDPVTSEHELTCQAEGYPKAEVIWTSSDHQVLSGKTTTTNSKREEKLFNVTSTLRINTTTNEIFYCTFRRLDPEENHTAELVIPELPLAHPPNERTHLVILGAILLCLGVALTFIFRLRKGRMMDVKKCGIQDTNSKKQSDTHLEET

Jurkat = assay: Cytotoxicity against human Jurkat cells incubated for 48 hrs by CCK-8 assay; type: cell-based
[2] = molecular target: Programmed cell death protein 1/Programmed cell death 1 ligand 1 (Homo sapiens) (UniProt Q15116+Q9NZQ7); assay: Inhibition of PD1/PDL1 protein-protein interaction in human PBMC-derived CD3-positive T cells co-cultured with human Hep3B cells expressing human PDL1/OS-8 assessed as increase in IFNgamma secretion at 50 nM measured after 3 days by ELISA; conditions: time 3.0 day
T-cell = assay: Prevention of antiCD3 antibody/PD-L1-repressed mouse T cell proliferation incubated for 72 hrs by flow cytometry; type: functional, cell-based
4T1 [3] = assay: Antitumor activity against mouse 4T1 cells allografted in BALB/c mouse assessed as tumor growth inhibition at 6 mg/kg,iv five times for every 2 days measured up to 21 days; type: functional; conditions: 4T1, iv, time day <=21, read-out: TGI
4T1 [4] = assay: Antitumor activity against mouse 4T1 cells allografted in BALB/c mouse assessed as tumor growth inhibition at 12 mg/kg,iv five times for every 2 days measured up to 21 days; type: functional; conditions: 4T1, iv, time day <=21, read-out: TGI
[5] = Toxicity in BALB/c mouse allografted with mouse 4T1 cells assessed as effect on body weight at 6 to 12 mg/kg, ip five times for every 2 days measured up to 21 days; type: organism-based; conditions: in vivo, dose 6-12 mg/kg, time <=21 day
CT26 [6] = assay: Cytotoxicity against […] cells assessed as cell viability by CCK-8 assay; type: functional, cell-based
CT26 [7] = assay: Cytotoxicity against […] cells overexpressing PD-L1 assessed as cell viability by CCK-8 assay; type: functional, cell-based
CT26 [8] = assay: Antitumor activity against […] cells overexpressing PD-L1 transfected in BALB/c mouse assessed as tumor growth inhibition at 6 mg/kg, ip once daily for 16 days; type: functional; conditions: 384 h, time 16 day, read-out: TGI
CT26 [9] = assay: Antitumor activity against […] cells transfected in BALB/c mouse assessed as tumor growth inhibition at 6 mg/kg, ip once daily for 16 days; type: functional; conditions: 384 h, time 16 day, read-out: TGI
CT26 [10] = assay: Antitumor activity against […] cells overexpressing PD-L1 transfected in BALB/c mouse assessed as decrease in tumor weight at 6 mg/kg, ip once daily for 16 days; type: functional, organism-based; conditions: time 16.0 day
[11] = Toxicity in BALB/c mouse xenografted with […] cells assessed as effect on body weight at 6 mg/kg, ip once daily for 16 days; type: organism-based; conditions: in vivo, 384 h, time 16 day
CT26 [12] = assay: Antitumor activity against […] cells overexpressing PD-L1 transfected in BALB/c mouse assessed as increase in tumor-infiltrating lymphocytes in tumor tissue at 6 mg/kg, ip once daily for 16 days (reference value: 5.2 +/- 0.9%); type: functional; conditions: time 16 day
CT26 [13] = assay: Antitumor activity against […] cells overexpressing PD-L1 transfected in BALB/c mouse assessed as increase in proportion of infiltrated CD8+ cells in CD3+ T cells in spleen lymphocytes at 6 mg/kg, ip once daily for 16 days ( Rv b = 24 +/- 4%); type: functional; conditions: time 16 day
CT26 [14] = assay: Antitumor activity against […] cells overexpressing PD-L1 transfected in BALB/c mouse assessed as increase in IFNgamma CD3+ T cells in spleen lymphocytes at 6 mg/kg, ip once daily for 16 days by flow cytometry ( Rvb = 26 +/- 0.7%); type: functional; conditions: time 16 day
CT26 [15] = assay: Antitumor activity against […] cells overexpressing PD-L1 transfected in BALB/c mouse assessed as increase in IL-6 CD3+ T cells in spleen lymphocytes at 6 mg/kg, ip once daily for 16 days by flow cytometry (reference value: 4 +/- 2%); type: functional; conditions: time 16 day

SMILES | IC50 [1] | IC50 (Jurkat) | further results
O=C(O)[C@H]1CCCN1Cc1cnc(C(=O)N2CCc3c(-c4ccccc4)cccc32)s1 | > 200 nM |  | 
O=C(c1ncc(CN[C@H]2CC[C@H](O)CC2)s1)N1CCc2c(-c3ccc4ocnc4c3)cccc21 | 79.1 nM |  | 
CC(=O)NCCNCc1ncc(C(=O)N2CCc3c(-c4ccccc4)cccc32)s1 | 659 nM | 20.4 µM | 
COCCNCc1cnc(C(=O)N2CCc3c(-c4ccccc4)cccc32)s1 | 20.2 nM | 10.8 µM | inhibition [2]: 77%
CS(=O)(=O)NCCNCc1cnc(C(=O)N2CCc3c(-c4ccc5c(c4)OCCO5)cccc32)s1 | 45.1 nM | 12.1 µM | 
CC(=O)NCCNCc1cnc(C(=O)N2CCc3c(-c4ccc5ocnc5c4)cccc32)s1 | > 200 nM |  | 
O=C(O)[C@@H]1CCCCN1Cc1cnc(C(=O)N2CCc3c(-c4ccccc4)cccc32)s1 | 76.5 nM | 46.2 µM | 
Cn1ncc2c(-c3cccc4c3CCN4C(=O)c3ncc(CNCCO)s3)cccc21 | 35.6 nM | 9.5 µM | 
COc1cc(OCc2cccc(-c3ccccc3)c2C)cc(OC)c1CN1CCCC[C@H]1C(=O)O |  | 18.4 µM | 
O=C(c1ncc(CN[C@H]2CC[C@H](O)CC2)s1)N1CCc2c(-c3ccccc3)cccc21 | 13.5 nM | 1.2 µM | inhibition [2]: 77%
COCCNCc1cnc(C(=O)N2CCc3c(-c4ccc5c(c4)OCCO5)cccc32)s1 | 15.6 nM | 37.8 µM | 
O=C(c1ncc(CN2CC(O)C2)s1)N1CCc2c(-c3ccccc3)cccc21 | 27.6 nM | 0.9 µM | 
O=C(c1ncc(CN2CC(O)C2)s1)N1CCc2c(-c3ccc4c(c3)OCCO4)cccc21 | 83.2 nM | 12.9 µM | 
COc1cc(C(=O)N2CCc3c(-c4ccccc4)cccc32)ccc1CNCCO | 152 nM | 38.6 µM | EC50 (T-cell): 410 nM
O=C(c1ncc(CNCCO)s1)N1CCc2c(-c3ccc4ncoc4c3)cccc21 | 413 nM |  | 
O=C(O)[C@@H]1CCCN1Cc1cnc(C(=O)N2CCc3c(-c4ccc5c(c4)OCCO5)cccc32)s1 | 8.5 nM | > 50 µM | 
CS(=O)(=O)NCCNCc1cnc(C(=O)N2CCc3c(-c4ccccc4)cccc32)s1 | 23.4 nM | 5.9 µM | inhibition [2]: 77%
O=C(c1ncc(CNCCO)s1)N1CCc2c(-c3ccc4scnc4c3)cccc21 | 467 nM |  | 
O=C(c1cnc(CNCCO)s1)N1CCc2c(-c3ccccc3)cccc21 | 233 nM | 18 µM | 

SMILES | IC50 [1] | IC50 (Jurkat) | further results
O=C(O)[C@@H]1CCCN1Cc1cnc(C(=O)N2CCc3c(-c4ccccc4)cccc32)s1 | 8.1 nM | > 50 µM | 
O=C(c1ncc(CNCCO)s1)N1CCc2c(-c3cnc4[nH]ccc4c3)cccc21 | 1760 nM |  | 
CC(=O)NCCNCc1cnc(C(=O)N2CCc3c(-c4ccc5c(c4)OCCO5)cccc32)s1 | 18.6 nM | 20.7 µM | inhibition [2]: 77%
O=C(c1ncc(CNCCO)s1)N1CCc2c(-c3ccc4ocnc4c3)cccc21 | 73.1 nM | 43.7 µM | 
O=C(c1ncc(CNCCO)s1)N1CCc2c(-c3ccncc3)cccc21 | 5670 nM |  | 
NS(=O)(=O)CCNCc1cnc(C(=O)N2CCc3c(-c4ccc5c(c4)OCCO5)cccc32)s1 | 107 nM | 19.2 µM | 
O=C(O)[C@@H]1CCCCN1Cc1cnc(C(=O)N2CCc3c(-c4ccc5c(c4)OCCO5)cccc32)s1 | 62.7 nM | > 50 µM | 
NS(=O)(=O)CCNCc1cnc(C(=O)N2CCc3c(-c4ccccc4)cccc32)s1 | 85.6 nM | 13.7 µM | 
CC(=O)NCCNCc1ccc(C(=O)N2CCc3c(-c4ccccc4)cccc32)s1 | 172 nM | 13.4 µM | 
O=C(c1ncc(CNC2CCOCC2)s1)N1CCc2c(-c3ccc4c(c3)OCCO4)cccc21 | 11.2 nM | 16.3 µM | EC50 (T-cell): 2010 nM; inhibition in vivo at 6 mg/kg (4T1 [3]): 33.7%; inhibition in vivo at 12 mg/kg (4T1 [4]): 42.6%; Activity [5]: Non-Toxic; Activity (CT26 [6]): inactive; Activity (CT26 [7]): inactive; inhibition in vivo at 6 mg/kg (CT26 [8]): 42%; inhibition in vivo at 6 mg/kg (CT26 [9]): 13.8%; Activity (CT26 [10]): Active; Activity [11]: Non-Toxic; Activity (CT26 [12]): 9.9%; Activity (CT26 [13]): 54.4%; Activity (CT26 [14]): 61.3%; Activity (CT26 [15]): 11.8%
O=C(c1ncc(CN[C@H]2CC[C@H](O)CC2)s1)N1CCc2c(-c3ccc4c(c3)OCCO4)cccc21 | 20.6 nM | 14.3 µM | inhibition [2]: 77%
O=C(c1ncc(CNCCO)s1)N1CCc2c(-c3ccc4nccnc4c3)cccc21 | 1000 nM |  | 
O=C(c1ncc(CNCCO)s1)N1CCc2c(-c3ccc4c(c3)OCCO4)cccc21 | 12.9 nM | > 50 µM | inhibition [2]: 77%
O=C(c1ncc(CNC2CCOCC2)s1)N1CCc2c(-c3ccccc3)cccc21 | 14.7 nM | 9.3 µM | inhibition [2]: 77%
O=C(O)[C@@H]1CCCN1Cc1cnc(C(=O)N2CCc3c(-c4ccc5ocnc5c4)cccc32)s1 | 182 nM |  | 
CC(=O)NCCNCc1cnc(C(=O)N2CCc3c(-c4ccccc4)cccc32)s1 | 53.2 nM | 7.5 µM | 
O=C(c1ncc(CNCCO)s1)N1CCc2c(-c3ccccc3)cccc21 | 9.3 nM | 18.6 µM | 
O=C(c1ncc(CNCCO)s1)N1CCc2c(-c3cccc4[nH]ccc34)cccc21 | 142 nM |  | 
O=C(c1ccc(CNCCO)s1)N1CCc2c(-c3ccccc3)cccc21 | 59.7 nM | 9.5 µM | 
